Consider 22 compounds from US8022099B2, “N-benzyl pyrrolidine derivatives” (Hoffmann-La Roche Inc., priority 2008, dated 2011).

This assay addresses T1, human NK3 receptor (Homo sapiens, UniProt P29371).
T1 construct: expressed in transfected cells; host or cells: HEK293 cells (transient expression), membrane preparation
T1 sequence (P29371 1-465): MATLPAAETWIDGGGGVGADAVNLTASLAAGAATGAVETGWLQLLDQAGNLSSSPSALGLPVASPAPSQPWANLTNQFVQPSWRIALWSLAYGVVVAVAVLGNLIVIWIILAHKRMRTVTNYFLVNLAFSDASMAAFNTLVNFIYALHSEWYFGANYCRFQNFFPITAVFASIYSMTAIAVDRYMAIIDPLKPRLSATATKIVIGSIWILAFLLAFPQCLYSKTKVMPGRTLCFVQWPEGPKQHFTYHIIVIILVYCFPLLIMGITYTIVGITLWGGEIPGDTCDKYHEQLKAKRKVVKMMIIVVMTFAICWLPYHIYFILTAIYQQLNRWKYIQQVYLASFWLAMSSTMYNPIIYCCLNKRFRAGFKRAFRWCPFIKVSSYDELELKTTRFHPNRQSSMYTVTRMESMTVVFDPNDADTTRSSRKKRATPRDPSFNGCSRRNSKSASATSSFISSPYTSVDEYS
Put plainly: [3H]SR142801 competition binding assay. Particulars: hNK3 receptor binding, [3H]SR142801, membranes from HEK293 cells transiently expressing recombinant human NK3 receptor. The procedure, abridged:
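Membranes from HEK293 cells transiently expressing human NK3 were incubated 75 min at RT with [3H]SR142801 at its KD and inhibitor (0.0003-10 μM) in Tris-HCl pH 7.4/MnCl2/phosphoramidon/BSA. Nonspecific binding used 10 μM SB222200. Ki from Hill-fitted IC50 via Cheng-Prusoff, duplicate determinations.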
As usually defined, the Ki is the dissociation constant of the complex between target and ligand, obtained from inhibition or displacement. Turning to `CN(Cc1ccc(C(F)(F)F)c(F)c1)[C@H]1CN(C(=O)N2CCN(c3cnccn3)CC2)C[C@@H]1c1ccc(Cl)c(Cl)c1` (racemic) [Example 69, {(3SR,4RS)-3-(3,4-Dichloro-phenyl)-4-[(3-fluoro-4-trifluoromethyl-benzyl)-methyl-amino]-pyrrolidin-1-yl}-(2,3,5,6-tetrahydro-[1,2′]bipyrazinyl-4-yl)-methanone], the Ki worked out at 4.7 nM.

Take `CN(Cc1ccc(C(F)(F)F)c(F)c1)[C@H]1CN(C(=O)N2CCN(c3ncccn3)CC2)C[C@@H]1c1ccc(Cl)c(Cl)c1` (racemic) [Example 63, {(3SR,4RS)-3-(3,4-Dichloro-phenyl)-4-[(3-fluoro-4-trifluoromethyl-benzyl)-methyl-amino]-pyrrolidin-1-yl}-(4-pyrimidin-2-yl-piperazin-1-yl)-methanone]: the Ki came out at 8.6 nM.

Consider `CN(Cc1ccc(C(F)(F)F)c(F)c1)[C@H]1CN(C(=O)N2CCN(S(C)(=O)=O)CC2)C[C@@H]1c1ccccc1` (racemic) [Example 17, {(3RS,4SR)-3-[(3-Fluoro-4-trifluoromethyl-benzyl)-methyl-amino]-4-phenyl-pyrrolidin-1-yl}-(4-methanesulfonyl-piperazin-1-yl)-methanone], for which the Ki worked out at 90.9 nM.

As to `CN(Cc1ccc(C(F)(F)F)c(F)c1)[C@H]1CN(C(=O)N2CCN(c3ncccc3C#N)CC2)C[C@@H]1c1ccc(Cl)c(Cl)c1` [Example 71, 2-(4-{(3S,4R)-3-(3,4-Dichloro-phenyl)-4-[(3-fluoro-4-trifluoromethyl-benzyl)-methyl-amino]-pyrrolidine-1-carbonyl}-piperazin-1-yl)-nicotinonitrile], the Ki was found to be 13.4 nM.

On to `CN(Cc1ccc(C(F)(F)F)c(F)c1)[C@H]1CN(C(=O)CN2CCN(CCCO)CC2)C[C@@H]1c1ccc(Cl)c(Cl)c1` (racemic) [Example 129, 1-{(3SR,4RS)-3-(3,4-Dichloro-phenyl)-4-[(3-fluoro-4-trifluoromethyl-benzyl)-methyl-amino]-pyrrolidin-1-yl}-2-[4-(3-hydroxy-propyl)-piperazin-1-yl]-ethanone], for which the Ki was found to be 17.1 nM.

With `CN(C)CCCN1CCN(C(=O)N2C[C@H](c3ccc(Cl)c(Cl)c3)[C@@H](N(C)Cc3ccc(C(F)(F)F)c(F)c3)C2)CC1` (racemic) [Example 74, {(3SR,4RS)-3-(3,4-Dichloro-phenyl)-4-[(3-fluoro-4-trifluoromethyl-benzyl)-methyl-amino]-pyrrolidin-1-yl}-[4-(3-dimethylamino-propyl)-piperazin-1-yl]-methanone], the Ki was determined as 5.4 nM.

In the case of `CN(Cc1ccc(C(F)(F)F)c(F)c1)[C@H]1CN(C(=O)N2CCN(c3ccccc3C#N)CC2)C[C@@H]1c1ccc(Cl)c(Cl)c1` (racemic) [Example 70, 2-(4-{(3SR,4RS)-3-(3,4-Dichloro-phenyl)-4-[(3-fluoro-4-trifluoromethyl-benzyl)-methyl-amino]-pyrrolidine-1-carbonyl}-piperazin-1-yl)-benzonitrile], the inhibition constant Ki was 10.5 nM.

Consider `CN1CCN(CCCCC(=O)N2C[C@H](c3ccc(Cl)c(Cl)c3)[C@@H](N(C)Cc3ccc(C(F)(F)F)c(F)c3)C2)CC1` (racemic) [Example 89, 1-{(3SR,4RS)-3-(3,4-Dichloro-phenyl)-4-[(3-fluoro-4-trifluoromethyl-benzyl)-methyl-amino]-pyrrolidin-1-yl}-5-(4-methyl-piperazin-1-yl)-pentan-1-one], for which the Ki is 26.9 nM.

`CN(Cc1ccc(C(F)(F)F)c(F)c1)[C@H]1CN(C(=O)CN2CCN(S(C)(=O)=O)CC2)C[C@@H]1c1ccc(Cl)c(Cl)c1` (racemic) [Example 115, 1-{(3SR,4RS)-3-(3,4-Dichloro-phenyl)-4-[(3-fluoro-4-trifluoromethyl-benzyl)-methyl-amino]-pyrrolidin-1-yl}-2-(4-methanesulfonyl-piperazin-1-yl)-ethanone]: the Ki was 13 nM.

Take `CN(Cc1ccc(C(F)(F)F)c(F)c1)[C@H]1CN(C(=O)N2CCN(CCO)CC2)C[C@@H]1c1ccc(Cl)c(Cl)c1` (racemic) [Example 67, {(3SR,4RS)-3-(3,4-Dichloro-phenyl)-4-[(3-fluoro-4-trifluoromethyl-benzyl)-methyl-amino]-pyrrolidin-1-yl}-[4-(2-hydroxy-ethyl)-piperazin-1-yl]-methanone]: the Ki was 6.2 nM.

For `CN(Cc1ccc(C(F)(F)F)c(F)c1)[C@H]1CN(C(=O)CN2CCN(CCC#N)CC2)C[C@@H]1c1ccc(Cl)c(Cl)c1` (racemic) [Example 118, 3-[4-(2-{(3SR,4RS)-3-(3,4-Dichloro-phenyl)-4-[(3-fluoro-4-trifluoromethyl-benzyl)-methyl-amino]-pyrrolidin-1-yl}-2-oxo-ethyl)-piperazin-1-yl]-propionitrile], the Ki stood at 11.2 nM.

Turning to `CN(Cc1ccc(C(F)(F)F)c(F)c1)[C@H]1CN(C(=O)N2CCCN(S(C)(=O)=O)CC2)C[C@@H]1c1ccc(Cl)c(F)c1` (racemic) [Example 82, {(3SR,4RS)-3-(4-Chloro-3-fluoro-phenyl)-4-[(3-fluoro-4-trifluoromethyl-benzyl)-methyl-amino]-pyrrolidin-1-yl}-(4-methanesulfonyl-[1,4]diazepan-1-yl)-methanone], the Ki stood at 39.7 nM.

In the case of `CN(Cc1ccc(C(F)(F)F)c(F)c1)[C@H]1CN(C(=O)N2CCN(c3ccncc3)CC2)C[C@@H]1c1ccc(Cl)c(Cl)c1` (racemic) [Example 68, {(3SR,4RS)-3-(3,4-Dichloro-phenyl)-4-[(3-fluoro-4-trifluoromethyl-benzyl)-methyl-amino]-pyrrolidin-1-yl}-(4-pyridin-4-yl-piperazin-1-yl)-methanone], the Ki amounted to 5.9 nM.

On to `C[C@H]1CN(CC(=O)N2C[C@H](c3ccc(Cl)c(Cl)c3)[C@@H](N(C)Cc3ccc(C(F)(F)F)c(F)c3)C2)CCN1` (mixture of isomers) [Example 140, 1-{(3SR,4RS)-3-(3,4-Dichloro-phenyl)-4-[(3-fluoro-4-trifluoromethyl-benzyl)-methyl-amino]-pyrrolidin-1-yl}-2-((S)-3-methyl-piperazin-1-yl)-ethanone], for which the Ki amounted to 47.9 nM.

Regarding `CN(CCC#N)CC(=O)N1C[C@H](c2ccc(Cl)c(Cl)c2)[C@@H](N(C)Cc2ccc(C(F)(F)F)c(F)c2)C1` (racemic) [Example 128, 3-[(2-{(3SR,4RS)-3-(3,4-Dichloro-phenyl)-4-[(3-fluoro-4-trifluoromethyl-benzyl)-methyl-amino]-pyrrolidin-1-yl}-2-oxo-ethyl)-methyl-amino]-propionitrile], the Ki was determined as 72 nM.

As for `CN(C)CCN1CCN(C(=O)N2C[C@H](c3ccc(Cl)c(Cl)c3)[C@@H](N(C)Cc3ccc(C(F)(F)F)c(F)c3)C2)CC1` (racemic) [Example 75, {(3SR,4RS)-3-(3,4-Dichloro-phenyl)-4-[(3-fluoro-4-trifluoromethyl-benzyl)-methyl-amino]-pyrrolidin-1-yl}-[4-(2-dimethylamino-ethyl)-piperazin-1-yl]-methanone], the Ki is 4.6 nM.

For the compound `CN(Cc1ccc(C(F)(F)F)c(F)c1)[C@H]1CN(C(=O)CCCCN2CCOCC2)C[C@@H]1c1ccc(Cl)c(Cl)c1` (racemic) [Example 62, 1-{(3SR,4RS)-3-(3,4-Dichloro-phenyl)-4-[(3-fluoro-4-trifluoromethyl-benzyl)-methyl-amino]-pyrrolidin-1-yl}-5-morpholin-4-yl-pentan-1-one], the Ki was determined as 11 nM.

As for `CN(Cc1ccc(C(F)(F)F)c(F)c1)[C@H]1CN(C(=O)CN2CCOCC2)C[C@@H]1c1ccc(Cl)c(Cl)c1` (racemic) [Example 113, 1-{(3SR,4RS)-3-(3,4-Dichloro-phenyl)-4-[(3-fluoro-4-trifluoromethyl-benzyl)-methyl-amino]-pyrrolidin-1-yl}-2-morpholin-4-yl-ethanone], the inhibitory constant (Ki) is 45.7 nM.

Consider `CC1CN(CC(=O)N2C[C@H](c3ccc(Cl)c(Cl)c3)[C@@H](N(C)Cc3ccc(C(F)(F)F)c(F)c3)C2)CC(C)O1` (mixture of isomers) [Example 142, 1-{(3SR,4RS)-3-(3,4-Dichloro-phenyl)-4-[(3-fluoro-4-trifluoromethyl-benzyl)-methyl-amino]-pyrrolidin-1-yl}-2-(2,6-dimethyl-morpholin-4-yl)-ethanone], for which the Ki was 19.7 nM.

For `CN(Cc1ccc(F)c(F)c1)[C@H]1CN(C(=O)N2CCN(S(C)(=O)=O)CC2)C[C@@H]1c1ccc(Cl)c(Cl)c1` (racemic) [Example 36, {(3SR,4RS)-3-(3,4-Dichloro-phenyl)-4-[(3,4-difluoro-benzyl)-methyl-amino]-pyrrolidin-1-yl}-(4-methanesulfonyl-piperazin-1-yl)-methanone], the Ki amounted to 52.6 nM.

On to `CN(C)CCN1CCN(CC(=O)N2C[C@H](c3ccc(Cl)c(Cl)c3)[C@@H](N(C)Cc3ccc(C(F)(F)F)c(F)c3)C2)CC1` (racemic) [Example 117, 1-{(3SR,4RS)-3-(3,4-Dichloro-phenyl)-4-[(3-fluoro-4-trifluoromethyl-benzyl)-methyl-amino]-pyrrolidin-1-yl}-2-[4-(2-dimethylamino-ethyl)-piperazin-1-yl]-ethanone], for which the Ki turned out to be 19.3 nM.

With `CN(Cc1ccc(C(F)(F)F)c(F)c1)[C@H]1CN(C(=O)CCN2CCOCC2)C[C@@H]1c1ccc(Cl)c(Cl)c1` [Example 110, 1-{(3S,4R)-3-(3,4-Dichloro-phenyl)-4-[(3-fluoro-4-trifluoromethyl-benzyl)-methyl-amino]-pyrrolidin-1-yl}-3-morpholin-4-yl-propan-1-one], the Ki stood at 26.7 nM.
